Reference: publication PMC3752901 (Clinical cancer research : an official journal of the …, 2013)

Tests used:
[1] = ref 24 (methotrexate), 14 (cefadroxil); cited from earlier work
ABCC4 = settings: cited from earlier work; for Km: read-out: Michaelis-Menten constant (Km) for ABCC4
mouse Abcc4 [2] = target: T1, mouse Abcc4 (Mus musculus, UniProt E9Q236); settings: 4 h
T1 sequence (E9Q236 1-1325): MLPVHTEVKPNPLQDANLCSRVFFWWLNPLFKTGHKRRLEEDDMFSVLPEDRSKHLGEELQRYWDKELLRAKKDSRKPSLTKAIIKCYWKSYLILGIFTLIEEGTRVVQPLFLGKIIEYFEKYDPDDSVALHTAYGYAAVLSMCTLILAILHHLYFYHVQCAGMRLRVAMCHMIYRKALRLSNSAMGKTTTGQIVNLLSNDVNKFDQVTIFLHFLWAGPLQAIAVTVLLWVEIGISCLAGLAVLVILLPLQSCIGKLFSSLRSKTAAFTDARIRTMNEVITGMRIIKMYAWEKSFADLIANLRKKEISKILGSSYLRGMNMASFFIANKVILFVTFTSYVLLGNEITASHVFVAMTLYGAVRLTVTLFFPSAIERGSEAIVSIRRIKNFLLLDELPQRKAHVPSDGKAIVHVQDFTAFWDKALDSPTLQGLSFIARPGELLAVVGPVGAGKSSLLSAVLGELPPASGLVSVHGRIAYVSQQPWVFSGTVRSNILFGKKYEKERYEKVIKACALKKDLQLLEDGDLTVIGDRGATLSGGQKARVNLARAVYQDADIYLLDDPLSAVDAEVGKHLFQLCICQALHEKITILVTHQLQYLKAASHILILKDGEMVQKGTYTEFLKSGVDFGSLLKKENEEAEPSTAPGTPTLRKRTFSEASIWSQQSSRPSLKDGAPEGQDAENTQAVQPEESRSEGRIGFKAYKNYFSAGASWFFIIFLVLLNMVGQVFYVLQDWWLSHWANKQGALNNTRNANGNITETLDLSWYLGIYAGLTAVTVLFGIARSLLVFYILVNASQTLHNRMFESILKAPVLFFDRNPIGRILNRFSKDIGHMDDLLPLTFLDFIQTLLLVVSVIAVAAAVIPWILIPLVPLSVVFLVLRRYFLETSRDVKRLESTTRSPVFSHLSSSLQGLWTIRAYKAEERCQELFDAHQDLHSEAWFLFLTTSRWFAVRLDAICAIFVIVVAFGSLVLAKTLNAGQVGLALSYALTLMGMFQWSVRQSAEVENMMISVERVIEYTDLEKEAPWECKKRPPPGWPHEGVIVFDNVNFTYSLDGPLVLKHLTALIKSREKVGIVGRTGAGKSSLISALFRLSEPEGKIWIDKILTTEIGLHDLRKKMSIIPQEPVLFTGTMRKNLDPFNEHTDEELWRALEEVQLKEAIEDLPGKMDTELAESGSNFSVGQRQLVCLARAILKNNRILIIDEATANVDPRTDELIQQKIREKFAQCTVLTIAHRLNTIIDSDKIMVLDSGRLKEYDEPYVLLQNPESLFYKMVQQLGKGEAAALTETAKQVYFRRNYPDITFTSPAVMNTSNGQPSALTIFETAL

human ABCC4 = target: T2, human ABCC4 (Homo sapiens, UniProt O15439); assay: Uptake into inside-out Sf9 vesicles expressing ABCC4; settings: GSH 2mM
T2 sequence (O15439 1-1325): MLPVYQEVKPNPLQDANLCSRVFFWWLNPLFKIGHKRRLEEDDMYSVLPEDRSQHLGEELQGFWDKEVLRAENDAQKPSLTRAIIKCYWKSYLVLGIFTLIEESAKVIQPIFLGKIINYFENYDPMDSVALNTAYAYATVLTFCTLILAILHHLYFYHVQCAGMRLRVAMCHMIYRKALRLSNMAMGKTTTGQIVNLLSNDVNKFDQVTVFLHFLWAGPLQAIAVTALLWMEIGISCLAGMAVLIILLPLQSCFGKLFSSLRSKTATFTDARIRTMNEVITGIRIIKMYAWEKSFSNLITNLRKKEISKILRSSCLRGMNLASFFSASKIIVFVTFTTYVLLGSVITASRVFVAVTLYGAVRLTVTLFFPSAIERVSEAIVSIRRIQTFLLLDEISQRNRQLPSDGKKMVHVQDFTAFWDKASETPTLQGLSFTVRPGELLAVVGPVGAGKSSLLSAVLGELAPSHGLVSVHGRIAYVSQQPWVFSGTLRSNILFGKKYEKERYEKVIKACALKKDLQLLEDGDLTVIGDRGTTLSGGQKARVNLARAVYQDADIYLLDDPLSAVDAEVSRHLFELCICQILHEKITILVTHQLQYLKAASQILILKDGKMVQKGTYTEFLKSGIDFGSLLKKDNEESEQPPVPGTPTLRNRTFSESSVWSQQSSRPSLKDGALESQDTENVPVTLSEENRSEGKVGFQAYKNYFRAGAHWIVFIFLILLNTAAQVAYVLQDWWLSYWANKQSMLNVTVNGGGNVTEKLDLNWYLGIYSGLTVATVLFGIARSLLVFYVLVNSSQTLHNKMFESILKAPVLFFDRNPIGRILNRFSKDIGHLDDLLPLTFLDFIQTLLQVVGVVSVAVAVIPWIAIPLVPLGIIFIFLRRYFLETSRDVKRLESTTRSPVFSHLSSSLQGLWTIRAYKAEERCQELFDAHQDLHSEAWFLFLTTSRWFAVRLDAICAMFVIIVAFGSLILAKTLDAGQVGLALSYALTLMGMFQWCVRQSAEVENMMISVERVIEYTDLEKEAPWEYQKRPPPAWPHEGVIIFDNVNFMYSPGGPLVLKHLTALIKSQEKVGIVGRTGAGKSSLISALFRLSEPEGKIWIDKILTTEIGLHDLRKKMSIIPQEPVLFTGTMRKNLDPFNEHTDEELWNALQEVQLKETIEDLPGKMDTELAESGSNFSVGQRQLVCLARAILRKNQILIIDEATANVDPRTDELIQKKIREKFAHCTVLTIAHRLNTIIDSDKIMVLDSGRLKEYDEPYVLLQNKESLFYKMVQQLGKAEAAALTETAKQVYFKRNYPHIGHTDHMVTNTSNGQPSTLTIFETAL

[3] = Plasma pharmacokinetics in wildtype and Abcc4; settings: oral 50 mg/kg, wildtype vs Abcc4(−/−) mice
mouse Abcc4 [4] = target: T1, mouse Abcc4; assay: Accumulation/efflux in Saos-2 cells transfected with Abcc4; settings: 100 μM, 4-h incubation

SMILES: CC1=C(C(=O)O)N2C(=O)[C@@H](NC(=O)[C@H](N)c3ccc(O)cc3)[C@H]2SC1 [cefadroxil]
- pharmacokinetic profile after oral administration in Abcc4(−/−) mice [1]: unchanged

SMILES: Nc1nc2c(c(=O)[nH]1)N(C=O)C(CNc1ccc(C(=O)N[C@@H](CCC(=O)O)C(=O)O)cc1)CN2 (stereo partly drawn) [leucovorin]
- Km (ABCC4): 640 µM

SMILES: O=C(O)c1ccccc1O [salicylic acid]
- substrate of mouse Abcc4 (mouse Abcc4 [2]): substrates of mouse Abcc4

SMILES: CN(Cc1cnc2nc(N)nc(N)c2n1)c1ccc(C(=O)N[C@@H](CCC(=O)O)C(=O)O)cc1 [MTX, methotrexate]
- Km (ABCC4): 220 to 1300 µM
- pharmacokinetic profile after oral administration in Abcc4(−/−) mice [1]: unchanged

SMILES: C[C@]12CC[C@@H]3c4ccc(O)cc4CC[C@H]3[C@@H]1CC[C@@H]2O[C@@H]1O[C@H](C(=O)O)[C@@H](O)[C@H](O)[C@H]1O [E2G, Estradiol-17β-D-glucuronide]
- increase of ABCC4-mediated transport by GSH (human ABCC4): about 2 fold

SMILES: C[C@H](Cn1cnc2c(N)ncnc21)OCP(=O)(O)O [tenofovir]
- Km (ABCC4): > 1000 µM

SMILES: CC(=O)Oc1ccccc1C(=O)O [aspirin, acetylsalicylic acid]
- substrate of mouse Abcc4 (mouse Abcc4 [2]): substrates of mouse Abcc4
- transported substrate of human ABCC4 (ABCC4): transported substrate of human ABCC4

SMILES: Nc1ncnc2c1ncn2CCOCP(=O)(O)O [adefovir]
- Km (ABCC4): > 1000 µM

SMILES: Cc1ccc(NC(=O)c2ccc(CN3CCN(C)CC3)cc2)cc1Nc1nccc(-c2cccnc2)n1 [imatinib]
- effect of Abcc4-deficiency on the oral pharmacokinetic profile [3]: not substantially affected
- transport by mouse Abcc4 (accumulation in Saos-2 cells overexpressing Abcc4 compared to control cells) (mouse Abcc4 [4]): no noticeable efflux transport
